Laboratory results taken from ChEMBL document CHEMBL1268980, “2-Aryl benzimidazoles: human SCD1-specific stearoyl coenzyme-A desaturase inhibitors” (Bioorg Med Chem Lett, 2010).

What was measured:
Acyl-CoA desaturase 1 = molecular target: T1, Acyl-CoA desaturase 1 (Rattus norvegicus, UniProt P07308); experiment: Inhibition of rat SCD1
T1 sequence (P07308 whole entry): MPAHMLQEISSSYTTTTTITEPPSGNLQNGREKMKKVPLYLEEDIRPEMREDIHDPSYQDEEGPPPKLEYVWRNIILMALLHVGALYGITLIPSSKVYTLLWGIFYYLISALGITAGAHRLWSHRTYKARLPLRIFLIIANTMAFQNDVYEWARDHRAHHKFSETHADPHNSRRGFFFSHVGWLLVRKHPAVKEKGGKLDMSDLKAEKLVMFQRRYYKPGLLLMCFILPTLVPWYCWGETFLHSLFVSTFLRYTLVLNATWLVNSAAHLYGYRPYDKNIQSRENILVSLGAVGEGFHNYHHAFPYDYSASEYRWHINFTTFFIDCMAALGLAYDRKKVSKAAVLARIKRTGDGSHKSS

Stearoyl-CoA desaturase = molecular target: T2, Stearoyl-CoA desaturase (Homo sapiens, UniProt O00767); experiment: Inhibition of human SCD1
T2 sequence (O00767 whole entry): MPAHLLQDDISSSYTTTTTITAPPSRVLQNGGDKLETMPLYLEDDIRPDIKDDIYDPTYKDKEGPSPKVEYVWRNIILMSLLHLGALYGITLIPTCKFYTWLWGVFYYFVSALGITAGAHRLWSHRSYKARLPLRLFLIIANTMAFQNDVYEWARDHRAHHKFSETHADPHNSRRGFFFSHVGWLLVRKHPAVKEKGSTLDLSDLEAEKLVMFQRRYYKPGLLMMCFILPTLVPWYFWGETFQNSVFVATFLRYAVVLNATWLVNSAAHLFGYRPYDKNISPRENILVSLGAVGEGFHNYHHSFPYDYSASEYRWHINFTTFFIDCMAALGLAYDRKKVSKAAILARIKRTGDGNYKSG

[1] = molecular target: T3, Stearoyl-CoA desaturase 5 (Homo sapiens, UniProt Q86SK9); experiment: Inhibition of human SCD5
T3 sequence (Q86SK9 whole entry): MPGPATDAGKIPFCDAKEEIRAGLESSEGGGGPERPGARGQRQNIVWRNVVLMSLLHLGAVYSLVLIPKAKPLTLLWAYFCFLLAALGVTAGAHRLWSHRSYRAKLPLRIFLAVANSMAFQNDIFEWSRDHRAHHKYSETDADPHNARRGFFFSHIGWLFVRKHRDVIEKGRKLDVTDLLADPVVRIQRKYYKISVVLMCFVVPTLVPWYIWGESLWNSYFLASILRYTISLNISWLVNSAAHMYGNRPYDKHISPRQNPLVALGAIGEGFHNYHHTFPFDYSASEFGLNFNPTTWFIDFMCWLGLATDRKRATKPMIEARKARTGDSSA

[2] = Terminal half life in C57BL/6 mouse at 10 mg/kg, po or 2 mg/kg, iv; assay type: ADME, organism-based, C57BL6; conditions: in vivo, read-out: beta t1/2 (converted)
[3] = molecular target: T4, Acyl-CoA (8-3)-desaturase (Rattus norvegicus, UniProt Q920R3); experiment: Inhibition of Delta(5) fatty acid desaturase in freshly isolated rat hepatocytes; assay type: cell-based, Hepatocyte
[4] = Oral bioavailability in Beagle dog at 2 mg/kg, po; assay type: ADME, organism-based, Canis lupus familiaris; conditions: in vivo
Mus musculus [5] = experiment: Inhibition of SCD activity in high sucrose/fat free diet fed C57BL/6 mouse assessed as reduction in conversion of [14C]stearic acid to [14C]oleic acid at 100 mg/kg, po; assay type: functional; conditions: C57BL6
[6] = Volume of distribution at steady state in C57BL/6 mouse at 10 mg/kg, po or 2 mg/kg, iv; assay type: ADME, organism-based, C57BL6; conditions: in vivo, read-out: Vdss
[7] = Drug level in high sucrose/fat free diet fed C57BL/6 mouse plasma at 100 mg/kg, po after 3 hrs post dose; assay type: ADME, organism-based, C57BL6; parameters: dose 100 mg/kg, route oral
[8] = molecular target: T4, Acyl-CoA (8-3)-desaturase; experiment: Inhibition of rat Delta(5) fatty acid desaturase by cell based assay
[9] = molecular target: Acyl-CoA (8-3)-desaturase (Homo sapiens, UniProt O60427); experiment: Inhibition of Delta(5) fatty acid desaturase in human HepG2 cells; assay type: cell-based
[10] = AUC in Beagle dog plasma at 2 mg/kg, po or 0.5 mg/kg, iv; assay type: ADME, organism-based, Canis lupus familiaris
[11] = Drug level in high sucrose/fat free diet fed C57BL/6 mouse liver at 100 mg/kg, po after 3 hrs post dose; assay type: ADME, organism-based, C57BL6; parameters: dose 100 mg/kg, route oral; conditions: read-out: Drug uptake
[12] = Volume of distribution at steady state in Beagle dog at 2 mg/kg, po or 0.5 mg/kg, iv; assay type: ADME, organism-based, Canis lupus familiaris; conditions: in vivo, read-out: Vdss
[13] = Plasma clearance in Beagle dog at 2 mg/kg, po or 0.5 mg/kg, iv; assay type: ADME, organism-based, Canis lupus familiaris
[14] = Oral bioavailability in C57BL/6 mouse at 10 mg/kg, po; assay type: ADME, organism-based, C57BL6; conditions: in vivo
[15] = Drug level in high sucrose/fat free diet fed C57BL/6 mouse plasma at 30 mg/kg, po after 3 hrs post dose; assay type: ADME, organism-based, C57BL6; parameters: dose 30 mg/kg, route oral
Mus musculus [16] = experiment: Inhibition of SCD activity in po dosed high sucrose/fat free diet fed C57BL/6 mouse assessed as reduction in conversion of [14C]stearic acid to [14C]oleic acid; assay type: functional, organism-based; conditions: C57BL6
[17] = Half life in Beagle dog at 2 mg/kg, po or 0.5 mg/kg, iv; assay type: ADME, organism-based, Canis lupus familiaris; conditions: in vivo
Mus musculus [18] = experiment: Inhibition of SCD activity in high sucrose/fat free diet fed C57BL/6 mouse assessed as reduction in conversion of [14C]stearic acid to [14C]oleic acid at 30 mg/kg, po; assay type: functional; conditions: C57BL6
[19] = AUC in C57BL/6 mouse plasma at 10 mg/kg, po or 2 mg/kg, iv; assay type: ADME, organism-based, C57BL6
[20] = Plasma clearance in C57BL/6 mouse at 10 mg/kg, po or 2 mg/kg, iv; assay type: ADME, organism-based, C57BL6
[21] = Drug level in high sucrose/fat free diet fed C57BL/6 mouse liver at 30 mg/kg, po after 3 hrs post dose; assay type: ADME, organism-based, C57BL6; parameters: dose 30 mg/kg, route oral; conditions: read-out: Drug uptake

T4 sequence (Q920R3 whole entry): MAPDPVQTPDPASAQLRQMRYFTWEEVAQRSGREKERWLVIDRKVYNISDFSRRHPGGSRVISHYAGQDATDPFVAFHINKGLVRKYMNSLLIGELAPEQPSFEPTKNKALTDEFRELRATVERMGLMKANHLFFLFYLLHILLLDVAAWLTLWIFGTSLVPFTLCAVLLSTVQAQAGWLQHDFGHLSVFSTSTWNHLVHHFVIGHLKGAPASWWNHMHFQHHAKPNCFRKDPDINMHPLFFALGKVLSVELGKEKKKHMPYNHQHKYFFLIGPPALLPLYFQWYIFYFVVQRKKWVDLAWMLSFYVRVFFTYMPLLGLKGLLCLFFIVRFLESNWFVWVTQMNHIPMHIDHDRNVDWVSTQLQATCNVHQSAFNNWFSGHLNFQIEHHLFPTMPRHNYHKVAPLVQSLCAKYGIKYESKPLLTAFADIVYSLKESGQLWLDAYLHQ
Acyl-CoA (8-3)-desaturase (Homo sapiens, UniProt O60427), sequence (O60427 whole entry): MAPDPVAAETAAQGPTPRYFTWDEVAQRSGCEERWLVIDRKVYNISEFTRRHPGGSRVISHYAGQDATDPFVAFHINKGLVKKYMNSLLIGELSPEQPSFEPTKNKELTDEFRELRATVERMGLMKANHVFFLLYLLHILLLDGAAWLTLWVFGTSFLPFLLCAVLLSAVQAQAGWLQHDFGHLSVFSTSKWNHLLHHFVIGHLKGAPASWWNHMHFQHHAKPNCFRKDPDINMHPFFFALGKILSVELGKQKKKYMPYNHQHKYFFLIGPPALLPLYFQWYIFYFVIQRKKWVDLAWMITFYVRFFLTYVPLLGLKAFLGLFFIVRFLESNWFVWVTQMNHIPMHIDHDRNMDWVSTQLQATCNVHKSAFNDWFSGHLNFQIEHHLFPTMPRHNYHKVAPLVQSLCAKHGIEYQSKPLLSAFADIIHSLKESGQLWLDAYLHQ

| Compound | IC50 (Acyl-CoA desaturase 1) | IC50 (Stearoyl-CoA desaturase) | IC50 [1] | further results |
| --- | --- | --- | --- | --- |
| CS(=O)(=O)c1ccc2nc(-c3ccc(-c4ccsc4)cc3)[nH]c2c1 | 104 nM | – | – | – |
| CS(=O)(=O)c1ccc2nc(-c3ccc(-c4ccccc4O)cc3)[nH]c2c1 | 336 nM | – | – | – |
| CS(=O)(=O)c1ccc2nc(-c3cnc(-c4ccccc4)nc3)[nH]c2c1 | 489 nM | – | – | – |
| CS(=O)(=O)c1ccc2nc(-c3ccc(-c4cccs4)cc3)[nH]c2c1 | 97 nM | – | > 20 µM | – |
| Cc1ccccc1-c1ccc(-c2nc3ccc(S(C)(=O)=O)cc3[nH]2)cc1 | 3860 nM | – | – | – |
| CC(C)(C)c1ccc2nc(-c3ccc(-c4ccccc4F)cc3)[nH]c2c1 | 175 nM | 731 nM | > 20 µM | – |
| CS(=O)(=O)c1ccc2nc(-c3ccc(-c4ccoc4)cc3)[nH]c2c1 | 395 nM | 1700 nM | > 20 µM | – |
| CS(=O)(=O)c1ccc2nc(-c3ccc(-c4cccc(F)c4)cc3)[nH]c2c1 | 21 nM | 30 nM | > 20 µM | – |
| CS(=O)(=O)c1ccc2nc(-c3ccc(-c4ccccn4)cc3)[nH]c2c1 | 1710 nM | 1760 nM | > 20 µM | – |
| Cc1ccsc1-c1ccc(-c2nc3ccc(S(C)(=O)=O)cc3[nH]2)cc1 | 472 nM | – | – | – |
| Cn1c(-c2ccc(-c3ccccc3F)nc2)nc2ccc(S(C)(=O)=O)cc21 | > 20000 nM | – | – | – |
| CS(=O)(=O)c1ccc2nc(-c3ccc(-c4cccc(Cl)c4F)cc3)[nH]c2c1 | 95 nM | – | – | – |
| CS(=O)(=O)c1ccc2nc(-c3ccc(-c4ccccc4F)cn3)[nH]c2c1 | 227 nM | – | – | – |
| CS(=O)(=O)c1cnc2nc(-c3ccc(-c4ccccc4F)cc3)[nH]c2c1 | 156 nM | – | > 20 µM | – |
| CS(=O)(=O)c1ccc2nc(-c3ccc(-c4ccc(Cl)cc4)cc3)[nH]c2c1 | > 20000 nM | – | – | – |
| CS(=O)(=O)c1ccn2cc(-c3ccc(-c4ccccc4)cc3)nc2c1 | 42 nM | 60 nM | > 20 µM | – |
| CS(=O)(=O)c1ccc2nc(-c3ccc(-c4cc(Cl)ccc4F)cc3)[nH]c2c1 | 278 nM | – | – | – |
| CS(=O)(=O)c1ccc2nc(-c3ccc(-c4ccc(O)cc4)cc3)[nH]c2c1 | 304 nM | 2330 nM | > 20 µM | – |
| NS(=O)(=O)c1ccc2nc(-c3ccc(-c4ccccc4F)cc3)[nH]c2c1 | 343 nM | 74 nM | > 20 µM | – |
| CS(=O)(=O)c1ccc2nc(-c3ccc(-c4cccnc4)cc3)[nH]c2c1 | 425 nM | – | – | – |
| C[S+]([O-])c1ccc2nc(-c3ccc(-c4ccccc4F)cc3)[nH]c2c1 (stereo not drawn) | 472 nM | 96 nM | > 20 µM | – |
| Cc1cccc(-c2ccc(-c3nc4ccc(S(C)(=O)=O)cc4[nH]3)cc2)c1 | 319 nM | – | – | – |
| CS(=O)(=O)c1ccc2nc(-c3ccc(-c4ccccc4)cc3)cn2c1 | > 20000 nM | – | – | – |
| CN(C)S(=O)(=O)c1ccc2nc(-c3ccc(-c4ccccc4F)cc3)[nH]c2c1 | 528 nM | – | – | – |
| N#Cc1ccc2nc(-c3ccc(-c4ccccc4F)cc3)[nH]c2c1 | > 20000 nM | > 20000 nM | > 20 µM | – |
| CS(=O)(=O)c1ccc2nc(-c3ccc(-c4ccc(F)cc4)cc3)[nH]c2c1 | 25 nM | – | – | – |
| CS(=O)(=O)c1ccc2nc(-c3ccc(-c4cccc(Cl)c4)cc3)[nH]c2c1 | 148 nM | 15 nM | > 10 µM | – |

Further lines, with some results ahead:

| IC50 (Acyl-CoA desaturase 1) | IC50 (Stearoyl-CoA desaturase) | IC50 [1] | Compound | further results |
| --- | --- | --- | --- | --- |
| 1250 nM | 1310 nM | > 20 µM | CCS(=O)(=O)c1ccc2nc(-c3ccc(-c4ccccc4F)cc3)[nH]c2c1 | – |
| 65 nM | 27 nM | > 20 µM | CS(=O)(=O)c1ccc2nc(-c3ccc(-c4ccccc4F)cc3)[nH]c2c1 | half-life [2]: 2130 min; IC50 [3]: 5.17 µM; bioavailability [4]: 70%; inhibition in vivo at 100 mg/kg (Mus musculus [5]): 78%; Vd [6]: 2.9 L/kg; concentration at 3 h [7]: 13.2 µM; IC50 [8]: > 50 µM; IC50 [9]: 1320 nM; AUC [10]: 2.4 µM·h; concentration at 3 h [11]: 31.9 µM; Vd [12]: 2 L/kg; clearance [13]: 26 mL/min/kg; bioavailability [14]: 39%; concentration at 3 h [15]: 6.5 µM; inhibition (Mus musculus [16]): Dose-dependent effect; half-life [17]: 66 min; inhibition in vivo at 30 mg/kg (Mus musculus [18]): 36%; AUC [19]: 8 µM·h; clearance [20]: 20 mL/min/kg; concentration at 3 h [21]: 10.1 µM |
| > 20000 nM | – | – | CS(=O)(=O)c1ccc2nc(-c3ccc(-c4ccccc4)cc3)sc2c1 | – |
| 4490 nM | 255 nM | > 20 µM | CS(=O)(=O)c1ccc2nc(-c3ccc(-c4ccccc4Cl)cc3)[nH]c2c1 | – |
| 20 nM | 24 nM | > 10 µM | CS(=O)(=O)c1ccc2nc(-c3ccc(-c4ccccc4)cc3)[nH]c2c1 | – |
| 401 nM | – | – | O=S(=O)(c1ccc2nc(-c3ccc(-c4ccccc4F)cc3)[nH]c2c1)C1CC1 | – |
| > 20000 nM | – | – | Fc1ccccc1-c1ccc(-c2nc3ccccc3[nH]2)cc1 | – |
| > 20000 nM | – | – | CS(=O)(=O)c1ccc2nc(-c3ccc(-c4ccc(-c5ccccc5)s4)cc3)[nH]c2c1 | – |
| 2470 nM | 4250 nM | > 20 µM | CS(=O)(=O)c1ccc2nc(-c3ccc(-c4ccncc4)cc3)[nH]c2c1 | – |
| > 20000 nM | – | – | CS(=O)(=O)c1ccc2nc(-c3ccc(Br)cc3)[nH]c2c1 | – |
| 2490 nM | – | – | Cn1c(-c2ccc(-c3ccccc3F)nc2)nc2cc(S(C)(=O)=O)ccc21 | – |
| 697 nM | – | – | CSc1ccc2nc(-c3ccc(-c4ccccc4F)cc3)[nH]c2c1 | – |
| 58 nM | 19 nM | > 20 µM | CS(=O)(=O)c1ccc2nc(-c3ccc(-c4ccccc4F)nc3)[nH]c2c1 | – |
| > 20000 nM | – | – | Cc1ccc(-c2ccc(-c3nc4ccc(S(C)(=O)=O)cc4[nH]3)cc2)cc1 | – |
| 396 nM | 342 nM | > 20 µM | CS(=O)(=O)c1ccc2nc(-c3ccc(-c4cccc(O)c4)cc3)[nH]c2c1 | – |
